We go through one compound from publication PMC10326281, “Insights into the mechanisms governing P01 scorpion toxin effect against U87 glioblastoma cells oncogenesis” (Frontiers in Pharmacology, 2023).

The test system of test [1] is α1β1 integrin. The experiment in a line: U87 cell adhesion in presence of anti-integrin antibodies, α1β1. The class given is cell-based, human. To be noted: 50 μg/mL P01, 30 min pre-incubation, 2 h at 37°C, anti-α1β1 (1/200), n = 3. As for the experimental part:
(§1) To study the implication of integrins in the P01 peptide activity, adhesion assays using anti-integrin blocking antibodies: anti- α1β1 (1/200), anti- αvβ3 (1/200), anti- α5 (1/200) and anti- β3 (1/200) were performed as described above, except that cells were pretreated with the active peptide P01 at 50 μg/mL.

Test [2] relates to apamin-sensitive receptor (SKCa channels). The following applies: selective blocker of SKCa channels displaced; previously reported, ref Zerrouk et al., 1996; cited from earlier work. An excerpt:
Our team has initiated the fractionation of Aa scorpion venom, in order to identify scorpion peptides targeting potassium channels involved in the oncological process. Thus, we succeeded to isolate one peptide well represented in this venom. Based on its N-terminal sequence and its mass fingerprint this peptide corresponded to the P01 toxin, previously described by ([Zerrouk et al., 1996]).

Test [3] relates to αvβ3 integrin. The experiment in a line: U87 cell adhesion in presence of anti-integrin antibodies, αvβ3. The format is cell-based, human. To be noted: 50 μg/mL P01, 30 min pre-incubation, 2 h at 37°C, anti-αvβ3 (1/200), n = 3. As for the experimental part:
as §1

Test [4] deals with U87 glioblastoma cells. The experiment in a line: Cell adhesion assay, U87. The format is cell-based, human. The following applies: n = 3; for inhibition of adhesion: 50 μg/mL P01, 2 h. An excerpt: (§2) The ATCC (American Type Culture Collection, Rockville, MD, United States) cancer cell lines U87 (glioblastoma), MDA-MB231 (breast cancer) and LS174 (colon adenocarcinoma) were routinely cultured in DMEM supplemented with 10% fœtal bovine serum (FBS), 1% l-glutamine and 100 IU/mL penicillin/streptomycin. […] Rat SK2 cDNA cloned into pJA5 plasmid was a gift from Dr. Skolnik (university Langone Medical center, New York). Human SK3 cDNA cloned into Pipru vector was a king gift from Pr. Soriani (Université Côte d’Azur, CNRS, Inserm, Nice, France).
(§3) Adhesion assays were performed as previously described by ([Sarray et al., 2007]). Glioblastoma U87 cells in suspension (10^6 cells/mL) were treated with 50 μg/mL of P01 and deposited on wells coated with purified extracellular matrix (ECM): Fg at 50 μg/mL; Fn at 10 μg/mL; Coll-I at 50 μg/mL; laminin (Lam) at 15 μg/mL or poly-L-lysine (PL) at 20 μg/mL for U87. MDA-MB231 and LS174 cells were also used in their adequate ECM: Fg and Coll-I respectively. They were incubated to adhere to the substrate for 2 h or 24 h at 37°C. After washing, attached cells were fixed, stained by 0.1% crystal violet, lysed with 1% SDS and quantified by measuring absorbance at 560 nm. The specific adhesion is obtained by subtracting the absorbance obtained in the absence of adhesion substrate (no specific control). To study the dose-response effect, different concentrations of P01 were used (25–100 μg/mL) and the IC50 value was determined.

The subject of test [5] is LS174 colon adenocarcinoma cells. The experiment in a line: Cell migration assay (modified Boyden chamber), LS174. The format is cell-based, human. To be noted: 50 μg/mL, 5 h, collagen type I 50 μg/mL coating, n = 3.
Source text: as §2
(§4) Cell migration assay was performed using modified Boyden chamber (NeuroProbe Inc., Bethesda, MD, United States) as previously described ([Sarray et al., 2007]). Membranes were coated with fibrinogen (Fg) (50 μg/mL), fibronectin (Fn) (10 μg/mL), collagen type I (Coll-I) (50 μg/mL) for U87, MDA-MB231 and LS174 cells respectively, for 2 h at 37°C. Cells were harvested as a single cell suspension (10^6 cells/mL) and treated with P01 at 50 μg/mL. Then added to pre-coated membranes and allowed to migrate for 5 h at 37°C in Boyden chamber. Cells were fixed on the underside of the membrane, stained by 0.1% crystal violet and migration was quantified by measuring the absorbance at 560 nm using a spectrophotometer (Thermo-Multiskan EX, Shanghai, China).

In test [6] the test system is SK2 currents of U87 cells. Put plainly: Whole-cell patch clamp, K+ currents of U87 cells. The class given is cell-based, human. The following applies: P01 125 pM vs Leidab-7 50 nM, ns between treatments. An excerpt: For U87 cells, whole-cell K^+ currents were generated by stepwise 8 mV depolarizing pulses from a constant holding potential of −90 up to +60 mV. The composition of extracellular solution is the same as that described above and the intracellular pipette solution is as follows in mM: K-glutamate 125, KCl 20, MgCl2 1, Mg-ATP 1, HEPES 10, CaCl2 0.7, EGTA 1, and pH was adjusted to 7.2 with KOH. The pCa is of 6.4 (10^−6.4 M of calcium concentration). Leidab-7 (Tocris, France) was used as reference peptide to selectively block SK2 currents in U87 cells.

For test [7], the system named is MDA-MB231 breast cancer cells. Put plainly: Cell proliferation test (crystal violet), MDA-MB231. The class given is cell-based, human. The following applies: 2–10 μg/mL, 72 h, n = 3.
Source text: as §2
The effect of the P01 peptide on cell proliferation was studied. The human cell lines U87, MDA-MB231 or LS174 (5,000 cells per well) were treated with 2; 5 and 10 μg/mL of P01 peptide. The plates were placed at 37°C for 72 h. Cellular proliferation was quantified at 560 nm by a spectrophotometer (Thermo-Multiskan EX, Shanghai, China) after treatment with 1% glutaraldehyde and staining with 0.1% crystal violet.
Every 24 h, a series of wells was washed with PBS, the cells were fixed with 1% glutaraldehyde, and preserved in PBS to follow the kinetics of proliferation. After 72 h, the cells were stained with crystal violet 0.1% and quantified by measuring the absorbance at 560 nm using a spectrophotometer (Thermo-Multiskan EX, Shanghai, China).

The subject of test [8] is β3 integrin. Put plainly: U87 cell adhesion in presence of anti-integrin antibodies, β3. The format is cell-based, human. The following applies: 50 μg/mL P01, 30 min pre-incubation, 2 h at 37°C, anti-β3 (1/200), n = 3. As for the experimental part:
as §1

In test [9] the test system is MDA-MB231 breast cancer cells. Put plainly: Cell adhesion assay, MDA-MB231. The format is cell-based, human. The following applies: data not shown.
Source text: as §2
as §3, with “To study the dose-response effect, different concentrations of P01 were used (25–100 μg/mL) and the IC50 value was determined.” left out

Test [10] deals with MDA-MB231 breast cancer cells. Put plainly: Cell migration assay (modified Boyden chamber), MDA-MB231. To be noted: 50 μg/mL, 5 h, fibronectin 10 μg/mL coating, n = 3. The format is cell-based, human.
Source text: as §2, §4

Test [11] deals with U87 glioblastoma cells. The experiment in a line: Cell migration assay (modified Boyden chamber), U87. The class given is cell-based, human.
Source text: as §2, §4

In brackets after ≈: the same amount, converted by molar mass. Where a SMILES comes first, the peptide text is derived from it. Bridges are numbered along the chain shown (N, C = ends).

As for `CC[C@H](C)[C@H](NC(=O)[C@@H]1CCCN1C(=O)[C@H](CCC(=O)O)NC(=O)[C@@H]1CSSC[C@@H]2NC(=O)[C@H](Cc3c[nH]cn3)NC(=O)[C@H](CCC(=O)O)NC(=O)[C@@H]3CCCN3C(=O)[C@@H]3CSSC[C@H](NC(=O)[C@H](CCCCN)NC(=O)[C@H](CC(=O)O)NC(=O)[C@H](CC(N)=O)NC(=O)[C@H](CC(=O)O)NC(=O)[C@H](CSSC[C@H](NC(=O)[C@H](CO)NC(=O)[C@@H](N)C(C)C)C(=O)N[C@@H](CCC(=O)O)C(=O)N[C@@H](CC(=O)O)C(=O)N3)NC(=O)[C@H](CCCCN)NC(=O)[C@H](C)NC(=O)[C@H](CCC(N)=O)NC(=O)[C@H](C)NC(=O)[C@H](CCCCN)NC(=O)[C@H](CCC(N)=O)NC(=O)[C@H]([C@@H](C)O)NC(=O)[C@H](CO)NC2=O)C(=O)N[C@@H](C(C)C)C(=O)N1)C(=O)O` [P01] (H-VSCEDCPEHCSTQKAQAKCDNDKCVCEPI-OH; disulfide 3-19, 6-24, 10-26 (inferred); N-terminus and C-terminus assumed), the “effect on adhesive function of α1β1” value in test [1] is recorded as “reduced the adhesive function”. Moreover, in [2], the “inhibition of 125I-apamin binding” value is “inhibit the binding of ^125I-apamin”. Further, the “effect on adhesive function of αvβ3” value in [3] is “reduced the adhesive function”. The “effect on adhesion after 24 h, Fg and Fn” value in test [4] (Fg and Fn, 50 μg/mL P01, 24 h) was “stayed active on Fg and Fn”. In addition, the inhibition of adhesion in test [4] (fibrinogen (Fg), 37°C) is 41%; in [4] (fibronectin (Fn), 37°C), 38%; in test [4] (poly-L-lysine (Pl)), “no inhibition could be observed”. For the same compound, the “IC50 (adhesion to Fg)” value in test [4] (fibrinogen, 25–100 μg/mL, 2 h) turned out to be 48.86 µg/mL (≈ 15.4 µM). Also, the “IC50 (adhesion to Fn)” value in test [4] (fibronectin, 25–100 μg/mL, 2 h) came out at 62.04 µg/mL (≈ 19.5 µM). The “effect on adhesion after 24 h, Pl” value in test [4] (poly-L-lysine (Pl), 50 μg/mL P01, 24 h) is listed as “an inhibition effect on Pl appeared”. The effect on migration result in test [5] and in test [10] was “no effect” each time. Besides, the “current density-voltage relationship compared with Leidab-7” value in test [6] is given as “similar”. Moreover, in test [7], the “effect on cell proliferation” value was “no effect”. In test [8], the “effect on cell adhesion through β3” value was “not able to alter cell adhesion”. In addition, the effect on adhesion entry in [9] is on record as “not affected”. Further, the inhibition of migration in [11] (50 μg/mL, 5 h at 37°C, fibrinogen 50 μg/mL coating, n = 3) worked out at 48%. In test [11] (Boyden chamber, 5 h), the “IC50 (migration)” value turned out to be 50 µg/mL (≈ 15.7 µM).
